{
  "source": "patent US9657351B2",
  "about": "“MRNA-based gene expression for personalizing patient cancer therapy with an MDM2 antagonist” (Hoffmann-La Roche Inc., priority 2013, dated 2017)",
  "key": {"[1]": {"tested_on": "CELLO/CACTEL human cancer cell lines", "assay": "COMPOUND A In Vitro Assay, whole CELLO/CACTEL panel (IC50 vs mRNA signature score, TP53 status, tumor type)", "format": "cell-based", "conditions": "for % Res: resistant IC50>=10; for % Sen: sensitive IC50<=1", "source_text": "To generate an MDM2 antagonist therapy predictive signature, the response of MDM2 antagonist therapy in vitro with gene expression profiling (FIG. 1) is combined. A bank of 287 human cancer cell lines, collectively termed the Cell Lines for Oncology/Chugai ACcumulative Tumour EncycLopedia (CELLO/CACTEL), representing a broad array of diverse human cancer tumor types are subject to evaluation using several high-throughput genomic technology platforms. The mutational status of nucleic acids from each cell line is determined by exome sequencing. Messenger RNA (mRNA) expression levels at baseline, prior to MDM2 antagonist therapy, are obtained via RNA sequencing. MDM2 antagonist therapy COMPOUND A, sometimes referred to herein as RG7112, responses are obtained by assays known to those skilled in the art such as RNA sequencing and microarray measurement using Gene Chip Human Genome U133 Plus 2.0 Array. The MDM2 therapy responses are obtained by high throughout screening assays. Depending on their responses to COMPOUND A these cell lines are classified as either sensitive, defined as IC50<=1, or resistant, defined as IC50>=10.\n281 cells are treated with MDM2 antagonists and the IC50 (therapy response) is generated. The cell lines span a broad range of tumor cell types of derivation.\nTo examine the specific prediction power of the mRNA signature score across the studied tumor types, and to make sure the prediction from the signature score is not confounded by tumor lineage, the signature score within each available tumor type in CELLO (Table 7, 7a) is examined.\nThe genes are ranked via their fold changes of responder cell lines to non-responder cell lines. Positive genes are defined as those with fold changes higher than 1; whereas negative genes are defined as those with fold changes less than 1. A multivariate logistic regression classifier is then built through a upward model selection procedure to maximize area under the receiver operating characteristic (ROC) curve with 10-fold cross-validation. The mode selection is implemented procedure through R package bestglm."}, "[2]": {"tested_on": "patients with relapsed/refractory leukemia (AML)", "assay": "NO21279 Phase 1 leukemia trial, clinical response (CR, MLFS, HI, PD)", "format": "in vivo, human", "description": "The performance of the MDM2 antagonist predictive mRNA response signature is tested in the clinical setting with specimens from the NO21279 leukemia trial (FIG. 1). 28 AML patients treated at the MTD are enrolled and completed pretreatment and C1D10 (cycle 1, day 10) sampling. […] The clinical endpoint in NO21279 was divided into 4 categories: Complete Response (CR), Morphologic Leukemia-Free State (MLFS), Hematologic Improvement (HI), and Progressive Disease (PD). Blood leukemia samples and bone marrow biopsy samples were collected at baseline screening, after a single dose (cycle 1 day 2, C1D2) and on last day of dosing (cycle 1, day 10, C1D10) and isolated via MACS® separation^11. The early pharmacodynamic effect of MDM2 antagonism in blood leukemia samples was assessed by measuring MDM2 RT PCR change between baseline and C1D10. Global gene expression profiles were generated for the peripheral blood leukemia cells and bone marrow biopsy samples obtained at baseline, C1D2 and C1D10.\n(§1) In the NO21279 Phase 1 clinical trial, patients with relapsed/refractory leukemia are treated with ascending doses of COMPOUND A. Specimens from subset of patients treated at the MTD (1500 mg BID×10 days) are evaluated as a part of the current gene expression study. Leukemia samples are collected at baseline, cycle 1 day 2 (C1D2) and cycle 1, day 10 (C1D10) and isolated via MACs separation.\nas §1, with “RG7112.” for “COMPOUND A.”\nClinical responses are evaluated and are divided into 4 categories: Complete Response (CR), Morphologic Leukemia-Free State (MLFS), Hematologic Improvement (HI), and Progressive Disease (PD). […] In addition to assessments of baseline samples, treatment samples are also evaluated (Cycle 1, Day 10)."}, "[3]": {"tested_on": "P53", "assay": "NP21280 solid tumor trial, tumor biopsy biomarker (p53 IHC)", "format": "in vivo, human", "conditions": "at C1D10, p=2.88×10−3", "description": "The predictive mRNA signature is also evaluated in two solid tumor trials (FIG. 1). […] In both clinical trials, a biomarker package that enabled assessment of p53 pathway activation is assessed (p53 IHC, p21 IHC, MDM2 mRNA, and Ki67), MDM2 inhibition activates the P53 pathway and decreases cell proliferation."}, "[4]": {"tested_on": "MDM2 mRNA", "assay": "NP21280 solid tumor trial, tumor biopsy biomarker (MDM2 mRNA)", "format": "in vivo, human", "conditions": "at C1D10, p=1.03×10−5"}, "[5]": {"tested_on": "MDM2 mRNA", "conditions": "NP22890; at C1D8; as previously reported; cited from earlier work"}, "[6]": {"conditions": "Adenocarcinoma cell lines, N 21"}, "[7]": {"conditions": "Adenocarcinoma, colorectal cell lines, N 7"}, "[8]": {"conditions": "Bone marrow cell lines, Number 5"}, "[9]": {"conditions": "Breast, mammary gland cell lines, Number 20"}, "[10]": {"conditions": "Carcinoma, gastric cell lines, N 5"}, "[11]": {"conditions": "Carcinoma, primary ductal cell lines, N 5"}, "[12]": {"conditions": "Carcinoma, squamous cell cell lines, N 12"}, "[13]": {"conditions": "Carcinoma, urinary bladder, transitional cell carcinoma (TCC) cell lines, N 7"}, "[14]": {"conditions": "Intestine, large, colon cell lines, Number 8"}, "[15]": {"conditions": "Leukaemia, acute myeloid cell lines, N 5"}, "[16]": {"conditions": "Lymphocyte cell lines, Number 6"}, "[17]": {"conditions": "Myeloma, multiple cell lines, N 5"}, "[18]": {"conditions": "Neuroblastoma (Glioma, neuroblastoma) cell lines, N 6"}, "[19]": {"conditions": "Urinary, bladder cell lines, Number 8"}, "[20]": {"conditions": "of 28 AML patients treated at the MTD (1500 mg BID×10 days)"}},
  "note": "“Also recorded” adds a separate entry of the source. Read-outs that look alike come from different tables or passages of the source.",
  "data": [
    {"compound": "CCOc1cc(C(C)(C)C)ccc1C1=N[C@@](C)(c2ccc(Cl)cc2)[C@@](C)(c2ccc(Cl)cc2)N1C(=O)N1CCN(CCCS(C)(=O)=O)CC1", "note": "[COMPOUND A]", "values": [
      {"measurement": "N (resistant)", "setting": "[1]; [6]", "value": 17},
      {"measurement": "N (sensitive)", "setting": "[1]; [6]", "value": 4},
      {"measurement": "N (resistant)", "setting": "[1]; [7]", "value": 5},
      {"measurement": "N (sensitive)", "setting": "[1]; [7]", "value": 2},
      {"measurement": "% Res", "setting": "[1]; [8]", "value": 60.0, "unit": "%"},
      {"measurement": "% Sen", "setting": "[1]; [8]", "value": 40.0, "unit": "%"},
      {"measurement": "% Res", "setting": "[1]; Brain cell lines, Number 10", "value": 50.0, "unit": "%"},
      {"measurement": "% Sen", "setting": "[1]; Brain cell lines, Number 10", "value": 50.0, "unit": "%"},
      {"measurement": "% Res", "setting": "[1]; [9]", "value": 85.0, "unit": "%"},
      {"measurement": "% Sen", "setting": "[1]; [9]", "value": 15.0, "unit": "%"},
      {"measurement": "N (resistant)", "setting": "[1]; Carcinoma cell lines, N 8", "value": 6},
      {"measurement": "N (sensitive)", "setting": "[1]; Carcinoma cell lines, N 8", "value": 2},
      {"measurement": "N (resistant)", "setting": "[1]; [10]", "value": 3},
      {"measurement": "N (sensitive)", "setting": "[1]; [10]", "value": 2},
      {"measurement": "N (resistant)", "setting": "[1]; [11]", "value": 4},
      {"measurement": "N (sensitive)", "setting": "[1]; [11]", "value": 1},
      {"measurement": "N (resistant)", "setting": "[1]; [12]", "value": 9},
      {"measurement": "N (sensitive)", "setting": "[1]; [12]", "value": 3},
      {"measurement": "N (resistant)", "setting": "[1]; [13]", "value": 6},
      {"measurement": "N (sensitive)", "setting": "[1]; [13]", "value": 1},
      {"measurement": "% Res", "setting": "[1]; [14]", "value": 62.5, "unit": "%"},
      {"measurement": "% Sen", "setting": "[1]; [14]", "value": 37.5, "unit": "%"},
      {"measurement": "N (resistant)", "setting": "[1]; [15]", "value": 3},
      {"measurement": "N (sensitive)", "setting": "[1]; [15]", "value": 2},
      {"measurement": "% Res", "setting": "[1]; Lung cell lines, Number 41", "value": 85.4, "unit": "%"},
      {"measurement": "% Sen", "setting": "[1]; Lung cell lines, Number 41", "value": 14.6, "unit": "%"},
      {"measurement": "% Res", "setting": "[1]; [16]", "value": 50.0, "unit": "%"},
      {"measurement": "% Sen", "setting": "[1]; [16]", "value": 50.0, "unit": "%"},
      {"measurement": "N (resistant)", "setting": "[1]; [17]", "value": 2},
      {"measurement": "N (sensitive)", "setting": "[1]; [17]", "value": 3},
      {"measurement": "N (resistant)", "setting": "[1]; [18]", "value": 3},
      {"measurement": "N (sensitive)", "setting": "[1]; [18]", "value": 3},
      {"measurement": "% Res", "setting": "[1]; Ovary cell lines, Number 6", "value": 66.7, "unit": "%"},
      {"measurement": "% Sen", "setting": "[1]; Ovary cell lines, Number 6", "value": 33.3, "unit": "%"},
      {"measurement": "% Res", "setting": "[1]; Pancreas cell lines, Number 9", "value": 100.0, "unit": "%"},
      {"measurement": "% Sen", "setting": "[1]; Pancreas cell lines, Number 9", "value": 0.0, "unit": "%"},
      {"measurement": "% Res", "setting": "[1]; Skin cell lines, Number 6", "value": 66.7, "unit": "%"},
      {"measurement": "% Sen", "setting": "[1]; Skin cell lines, Number 6", "value": 33.3, "unit": "%"},
      {"measurement": "% Res", "setting": "[1]; Stomach cell lines, Number 8", "value": 50.0, "unit": "%"},
      {"measurement": "% Sen", "setting": "[1]; Stomach cell lines, Number 8", "value": 50.0, "unit": "%"},
      {"measurement": "% Res", "setting": "[1]; [19]", "value": 75.0, "unit": "%"},
      {"measurement": "% Sen", "setting": "[1]; [19]", "value": 25.0, "unit": "%"},
      {"measurement": "Response, number of patients with CR", "setting": "[2]; all 28 patients, NO21279", "value": "3CR,"},
      {"measurement": "Response, number of patients with HI", "setting": "[2]; all 28 patients, NO21279", "value": "6 HI,"},
      {"measurement": "Response, number of patients with MLFS", "setting": "[2]; all 28 patients, NO21279", "value": "4 MLFS,"},
      {"measurement": "Response, number of patients with PD", "setting": "[2]; all 28 patients, NO21279", "value": 15, "unit": "PD"},
      {"measurement": "Response", "setting": "[2]; individual AML patients (no. 1-28), NO21279, MTD 1500 mg BID×10 days, listed as RG7112", "value": "CR (Complete Response (CR)); also recorded: MLFS (Morphologic Leukemia-Free State (MLFS)); also recorded: HI (Hematologic Improvement (HI)); also recorded: PD (Progressive Disease (PD))"},
      {"measurement": "clinical response: number of patients with Complete Response (CR)", "setting": "[2]; [20]", "value": 3},
      {"measurement": "clinical response: number of patients with Hematologic Improvement (HI)", "setting": "[2]; [20]", "value": 6},
      {"measurement": "clinical response: number of patients with Morphologic Leukemia-Free State (MLFS)", "setting": "[2]; [20]", "value": 4},
      {"measurement": "clinical response: number of patients with Progressive Disease (PD)", "setting": "[2]; [20]", "value": 15},
      {"measurement": "P53 concentration change from baseline", "setting": "[3]", "value": "significantly increase"},
      {"measurement": "MDM2 mRNA expression change from baseline", "setting": "[4]", "value": "significantly increase"},
      {"measurement": "MDM2 mRNA expression change from baseline", "setting": "[5]", "value": "significantly increase"}
    ]}
  ]
}
